Source: publication PMC4959447 (Journal of medicinal chemistry, 2015)
“And” between values parts separate entries of the source, which are not always exact repeats. Equal values may be shown once. Read-outs that look alike come from different tables or passages of the source. Each block holds one compound with its values, some of them ahead of it.

Tests used:
leukemia cell lines = assay: NCI-60 five-dose screen, leukemia sub-panel; format: cell-based; details: Homo sapiens, read-out: GI50 values in the range
[1] = tested on: primary AML cell specimen AML03; assay: Primary AML cell assay; format: cell-based; details: Homo sapiens, 24 h
[2] = tested on: primary AML cell specimens; assay: Primary AML cell assay, specimens taken together; format: cell-based; details: Homo sapiens
[3] = tested on: panel of 60 human cancer cell lines; assay: NCI-60 five-dose screen, whole panel; format: cell-based
[4] = tested on: rat 9L-SF gliosarcoma cells; assay: Colony formation assay with 9L-SF cells
M9-ENL1 cells = assay: M9-ENL1 cell assay; format: cell-based; details: M9-ENL1, 24 h

Structure (SMILES): C=C1C(=O)O[C@H]2[C@H]1CC/C(COC(=O)NCCCCCNC(=O)OC/C1=C/CC[C@@]3(C)O[C@H]3[C@H]3OC(=O)C(=C)[C@@H]3CC1)=C\CC[C@@]1(C)O[C@@H]21 [7c, bis-E-(((1aR,7aS,10aS,10bS)-1a-Methyl-8-methylene-9-oxo-1a,2,3,6,7,7a,8,9,10a,10b-decahydrooxireno[2',3':9,10]cyclodeca[1,2-b]furan-5-yl)methyl)pentane-1,5-diyldicarbamate]
GI50 (leukemia cell lines): 250 to 780 nM

EC50 [1]: 5000 nM | EC50 ([2]; AML01, read-out: EC50 (range)): 2500 to 8000 nM | EC50 ([2]; read-out: EC50 (range)): 2500 to 16000 nM
Structure (SMILES): C=C1C(=O)O[C@@H]2[C@H]3O[C@]3(C)CC/C=C(\C)CC[C@@H]12 [compound 1, parthenolide]

Structure (SMILES): C=C1C(=O)O[C@H]2[C@H]1CC/C(COC(=O)NCCCCCCCCNC(=O)OC/C1=C/CC[C@@]3(C)O[C@H]3[C@H]3OC(=O)C(=C)[C@@H]3CC1)=C\CC[C@@]1(C)O[C@@H]21 [7f, bis-E-(((1aR,7aS,10aS,10bS)-1a-Methyl-8-methylene-9-oxo-1a,2,3,6,7,7a,8,9,10a,10b-decahydrooxireno[2',3':9,10]cyclodeca[1,2-b]furan-5-yl)methyl)octane-1,8-diyldicarbamate]
GI50 (leukemia cell lines): 250 to 780 nM | GI50 ([3]; 60 cell, read-out: GI50 values in the nanomolar range, against most of the solid tumor cell lines in the 60 cell panel): 160 to 999 nM | GI50 ([3]; read-out: GI50 values, against more than 50% of the cancer cell lines in the panel): < 500 nM

EC50 [1]: 1200 nM
Structure (SMILES): C=C1C(=O)O[C@H]2[C@H]1CC/C(COC(=O)OCCCCCOC(=O)OC/C1=C/CC[C@@]3(C)O[C@H]3[C@H]3OC(=O)C(=C)[C@@H]3CC1)=C\CC[C@@]1(C)O[C@@H]21 [7j, bis-E-(((1aR,7aS,10aS,10bS)-1a-Methyl-8-methylene-9-oxo-1a,2,3,6,7,7a,8,9,10a,10b-decahydrooxireno[2',3':9,10]cyclodeca[1,2-b]furan-5-yl)methyl)pentane-1,5-diyldicarbonate]

Structure (SMILES): C=C1C(=O)O[C@H]2[C@H]1CC/C(COC(=O)NCCCCNC(=O)OC/C1=C/CC[C@@]3(C)O[C@H]3[C@H]3OC(=O)C(=C)[C@@H]3CC1)=C\CC[C@@]1(C)O[C@@H]21 [7b, bis-E-(((1aR,7aS,10aS,10bS)-1a-Methyl-8-methylene-9-oxo-1a,2,3,6,7,7a,8,9,10a,10b-decahydrooxireno[2',3':9,10]cyclodeca[1,2-b]furan-5-yl)methyl)butane-1,4-diyldicarbamate]
GI50 (leukemia cell lines): 250 to 780 nM

Structure (SMILES): C=C1C(=O)O[C@H]2[C@H]1CC/C(COC(=O)OC/C1=C/CC[C@@]3(C)O[C@H]3[C@H]3OC(=O)C(=C)[C@@H]3CC1)=C\CC[C@@]1(C)O[C@@H]21 [compound 8, bis-E-(((1aR,7aS,10aS,10bS)-1a-Methyl-8-methylene-9-oxo-1a,2,3,6,7,7a,8,9,10a,10b-decahydrooxireno[2',3':9,10]cyclodeca[1,2-b]furan-5-yl)methyl) carbonate]
fold more cytotoxic than DMAPT ([4]; clonogenic survival, 48 h, at a concentration of 10 μM): 1 × 10^6 fold and 1.08 × 10^6 fold | fold more toxic than compound 7f ([4]; colony formation assay, at 10 μM): 3,564 fold | EC50 (M9-ENL1 cells): 500 nM
